Test results from US7495030B2, “(5-(2-hydroxy-4-chlorobenzoyl) aminovaleric acid and salts thereof and compositions containing the same for delivering active agents” (Emisphere Technologies, Inc., priority 2000, dated 2009).

Legend:
[1] = Insulin oral delivery in rats, serum human insulin by ELISA and serum glucose; type: in vivo, Male Sprague-Dawley rats; conditions: delivery agent compound dose 200 mg/kg, insulin dose 0.5 mg/kg, volume dose 1.0 ml/kg
Description: Oral dosing (PO) compositions of delivery agent compound and human zinc insulin (minimum 26 IU/mg available from Calbiochem—Novabiochem Corp, La Jolla, Calif.) were prepared in deionized water. […] The solution was vortexed, then heated (about 37° C.) and sonicated. The pH was adjusted to about 7 to 8.5 with NaOH or HCl.
About 1.25 mg insulin from an insulin stock solution (15 mg/ml made from 0.5409 g insulin and […] deionized water, adjusting with HCl and NaOH to pH 8.15 and to obtain a clear solution using […]) was added to the solution and mixed by inverting.
The typical dosing and sampling protocols were as follows. […] A dosing group of five animals was administered one of the dosing solutions. […] The syringe was filled with dosing solution by drawing the solution through the catheter, which was then wiped dry. The catheter was placed down the esophagus leaving 1 cm of tubing past the incisors. Solution was administered by pressing the syringe plunger.
Serum insulin levels were determined with an Insulin ELISA Test Kit (Kit # DSL-10-1600 from Diagnostic Systems Laboratories, Inc., Webster, Tex.), modifying the standard protocol in order to optimize the sensitivity and linear range of the standard curve for the volumes and concentrations of the samples used in the present protocol. […]

In the case of O=C(O)CCCCNC(=O)c1ccc(Cl)cc1O [Compound 1, 5-(2-Hydroxy-4-Chlorobenzoyl)Aminovaleric Acid], the “Mean peak serum insulin” value [1] is reported as 36.25 ± 2.5 μU/ml and the melting point is reported as 140 to 141 °C.
